Reference: ChEMBL document CHEMBL1201862, “PubChem BioAssay data set” (2004)
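These data come from cells grown in 96-well plates and exposed to compound for 48 hours at five concentrations. The concentration for 50% growth inhibition is given as GI50.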 Activity calls are given as the source filed them. Cut-off read from the data, not from the text of the source: active = GI50 up to about 1.1 µM and inactive = higher.

How the values were obtained:
Assay in all cases: inhibition of tumour cell growth, NCI panel, 48 h
SF-268 = test system: SF-268
UO-31 = test system: UO-31
SN12C = test system: SN12C
HCT-116 = test system: HCT-116
HL-60 = test system: HL-60
SNB-19 = test system: SNB-19
HCC 2998 = test system: HCC 2998
OVCAR-5 = test system: OVCAR-5
OVCAR-4 = test system: OVCAR-4
IGROV-1 = test system: IGROV-1
NCI-H522 = test system: NCI-H522
SF-539 = test system: SF-539
HOP-92 = test system: HOP-92
NCI/ADR-RES = test system: NCI/ADR-RES
K562 = test system: K562
HOP-62 = test system: HOP-62
OVCAR-8 = test system: OVCAR-8
ACHN = test system: ACHN
CAKI-1 = test system: CAKI-1

Measured: GI50

COc1cc(/C=C/C(=O)O)ccc1C(=O)OCc1ccccc1
inactive: SF-268 > 100 µM | UO-31 > 100 µM | SN12C > 100 µM | HCT-116 > 100 µM | HL-60 > 100 µM | SNB-19 > 100 µM | HCC 2998 > 100 µM | OVCAR-5 > 100 µM | OVCAR-4 > 100 µM | IGROV-1 > 100 µM | NCI-H522 > 100 µM | SF-539 > 100 µM | HOP-92 > 100 µM | NCI/ADR-RES > 100 µM | K562 > 100 µM | HOP-62 > 100 µM | OVCAR-8 > 100 µM

Cc1cc(C)c(S(=O)(=O)N(CCCCCCN)OCCCN)c(C)c1
inactive: SF-268 16.5 µM | UO-31 19.5 µM | SN12C 19.6 µM | HCT-116 17.5 µM | HL-60 12.3 µM | ACHN 17.2 µM | SNB-19 19.3 µM | HCC 2998 16.6 µM | OVCAR-5 21.7 µM | OVCAR-4 20.2 µM | IGROV-1 13.9 µM | NCI-H522 13 µM | SF-539 18.2 µM | HOP-92 15.7 µM | NCI/ADR-RES 24.3 µM | K562 26.4 µM | HOP-62 20.9 µM | OVCAR-8 14 µM

O=C1OC(=O)c2c1cc1cc3c(cc1c2-c1ccc2c(c1)OCO2)OCO3
inactive: SF-268 > 100 µM | UO-31 > 100 µM | SN12C > 100 µM | HCT-116 > 100 µM | HL-60 > 100 µM | ACHN > 100 µM | SNB-19 > 100 µM | HCC 2998 > 100 µM | OVCAR-5 > 100 µM | OVCAR-4 > 100 µM | IGROV-1 > 100 µM | NCI-H522 > 100 µM | SF-539 > 100 µM | HOP-92 > 100 µM | CAKI-1 > 100 µM | NCI/ADR-RES > 100 µM | K562 > 100 µM | OVCAR-8 > 100 µM

CC(C)C(=O)Nc1cc(C(F)(F)F)ccc1[N+](=O)[O-]
inactive: SF-268 > 100 µM | UO-31 > 100 µM | SN12C > 100 µM | HCT-116 > 100 µM | HL-60 94 µM | ACHN > 100 µM | SNB-19 > 100 µM | HCC 2998 > 100 µM | OVCAR-5 > 100 µM | OVCAR-4 > 100 µM | IGROV-1 > 100 µM | NCI-H522 > 100 µM | SF-539 > 100 µM | HOP-92 > 100 µM | CAKI-1 > 100 µM | NCI/ADR-RES > 100 µM | K562 50.9 µM | HOP-62 > 100 µM | OVCAR-8 > 100 µM

COc1cc2c(cc1OC)-c1c3c(cc4c1[C@@H](C2)N(C)CC4)OCO3
inactive: SF-268 7.69 µM | UO-31 11.8 µM | SN12C 6.14 µM | HCT-116 2.87 µM | HL-60 7.26 µM | SNB-19 5.74 µM | HCC 2998 9.35 µM | OVCAR-5 9.64 µM | OVCAR-4 8.26 µM | IGROV-1 9.62 µM | NCI-H522 6.7 µM | SF-539 5.94 µM | HOP-92 6.78 µM | CAKI-1 6.01 µM | NCI/ADR-RES 5.62 µM | K562 5.36 µM | HOP-62 3.57 µM | OVCAR-8 4.59 µM

O=C1c2cccc3cccc(c23)C(=O)N1O
inactive: SF-268 70.5 µM | UO-31 70.1 µM | SN12C 54.1 µM | HCT-116 27.4 µM | HL-60 > 100 µM | ACHN 71.8 µM | SNB-19 95.1 µM | HCC 2998 75 µM | OVCAR-5 > 100 µM | OVCAR-4 57.8 µM | IGROV-1 20.2 µM | NCI-H522 37.2 µM | SF-539 50.9 µM | HOP-92 25.7 µM | CAKI-1 49.8 µM | NCI/ADR-RES > 100 µM | K562 36.7 µM | OVCAR-8 56.6 µM

CCOC(=O)C(NC(=O)c1cccc(Cl)c1)(Nc1ccc(S(=O)(=O)Nc2cc(C)on2)cc1)C(F)(F)F (centres undefined)
inactive: SF-268 > 100 µM | UO-31 > 100 µM | SN12C > 100 µM | HCT-116 > 100 µM | HL-60 > 100 µM | ACHN > 100 µM | SNB-19 > 100 µM | HCC 2998 > 100 µM | OVCAR-5 > 100 µM | OVCAR-4 > 100 µM | IGROV-1 > 100 µM | NCI-H522 > 100 µM | SF-539 > 100 µM | HOP-92 > 100 µM | CAKI-1 > 100 µM | NCI/ADR-RES > 100 µM | K562 > 100 µM | HOP-62 > 100 µM | OVCAR-8 > 100 µM

Nc1cc(O)c2cc(/N=N/c3ccc(/N=N/c4ccc(/N=N/c5ccc6cc(S(=O)(=O)O)cc(S(=O)(=O)O)c6c5)c5ccccc45)c4cc(S(=O)(=O)O)ccc34)c(S(=O)(=O)O)cc2c1
inactive: SF-268 > 100 µM | UO-31 85.9 µM | SN12C > 100 µM | HCT-116 > 100 µM | HL-60 42.3 µM | SNB-19 > 100 µM | HCC 2998 > 100 µM | OVCAR-5 > 100 µM | OVCAR-4 > 100 µM | IGROV-1 > 100 µM | NCI-H522 98.6 µM | SF-539 > 100 µM | HOP-92 32.2 µM | NCI/ADR-RES > 100 µM | K562 > 31.6 µM | HOP-62 > 100 µM | OVCAR-8 > 100 µM
